Data on one substance can be found in patent US7964406B2, “Means and methods for producing a stabilized cell of interest” (Academisch Medisch Centrum Bij De Universiteit Van Amsterdam, priority 2004, dated 2011).

The test system of assay [1] is BCL-6. Briefly: BCL-6 expression in STAT5b-ER+ tonsil B cells after 4HT, RT-PCR and Western blot. The settings on record: 4HT added back for 8 hr after 10 days without. Type of assay: cell-based, human. The protocol: FIG. 21. Induction of BCL-6 expression by STAT5. (A) RT-PCR analysis of BCL-6 and HPRT in B cells transduced with CA-STAT5b-ER cultured in CD40L, IL-2 and IL-4 with 4HT. After incubation of the cells without 4HT for 10 days, 4HT was added back for 8 hr in the presence or absence of cyclohexamide (CH). This experiment was repeated 3 times with similar results. (B) Expression of BCL-6 protein in CA-STAT5b-ER-transduced B cells cultured in the presence of 4HT constantly or absence of 4HT for 12 days as determined by Western blot analysis using an anti-BCL-6 antibody. An antibody against actin was used as a protein loading control. Similar results were obtained in 3 independent experiments. (C) Dual luciferase reporter assay. Part of the promoter region of the BCL-6 gene (position −657/+471 bp) was linked to the firefly (P. pyralis) luciferase coding sequence and subcloned into the pGL3 vector. One potential STAT5 binding site in this promoter region (−548/−566 bp) was mutated from […] to […], and two different clones (BCL-6* and BCL-6**) were subcloned into the pGL3-firefly luciferase backbone. These pGL3 constructs were cotransfected with LZRS-CA-STAT5b and the Renilla luciferase containing vector into 293T cells. Both luciferase activities were measured sequentially from a single sample and relative luciferase units were calculated and corrected for the Renilla luciferase activity. […]

The subject of assay [2] is human tonsillar B cells. Briefly: 4HT-dependent growth of CA-STAT5b-ER transduced tonsillar B cells. It counts as cell-based. The conditions noted are these: 1 μM 4HT, CD40L, IL-2 and IL-4. The protocol: FIG. 19. Characteristics of B cells transduced with CA-STAT5b-ER. (A) Tonsil B cells were cultured in CD40L, IL-2 and IL-4 and transduced with CA-STAT5b-ER-IRES-ΔNGFR (circles) or with control-IRES-ΔNGFR (squares). Both cultures were split, one part was cultured without (open symbols) and another with 1 μM 4HT (closed symbols). At the indicated time points after transduction percentages of transduced cells were determined by flow cytometric analysis after staining with an APC-conjugated antibody against NGFR. Absolute cell number counts were determined based on the percentages of ΔNGFR^+ cells. The experiment shown is representative for 5 independent experiments performed. (B) CA-STAT5b-ER-IRES-ΔNGFR transduced B cells 30 days after transduction were cultured for 7 days in the absence of 4HT. Equal numbers of cells were cultured then either in the presence (closed squares) or absence of 4HT (open squares) and absolute cell numbers were determined. Shown is a representative experiment out of 3. (C) Flow cytometric analysis of a representative culture of CA-STAT5b-ER-IRES-ΔNGFR transduced B cells cultured in CD40L, IL-2 and IL-4 in the presence of 4HT. Isotype control stainings are shown as thin histograms.
We then transduced human tonsillar B cells with the CA-STAT5b-ER-IRES-ΔNGFR construct and examined the effect of 4HT on the proliferative capacity of these B cells. […]

Turning to 4-Hydroxy-Tamoxifen [4HT], the “expression of the BCL-6 transcript with 4HT versus without” value in assay [1] is recorded as “substantially higher”. For the same substance, in assay [2], the “growth selection of CA-STAT5b-ER expressing cells (ΔNGFR+)” value is “only occurred in the presence of 4HT”.
